According to the METLIN SMRT retention time set (Domingo-Almenara et al. 2019):

assay: gradient 5% acetonitrile 3 min, to 50% in 2 min, to 85% in 15 min, held 3 min, 100 µL/min; conditions: column: Zorbax Extend-C18 2.1 x 50 mm; eluents: water / acetonitrile, 0.1% formic acid
Summary of the method: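 Pure standards were run in mixtures of ~100 molecules by HPLC coupled to a quadrupole time-of-flight mass spectrometer. The column was a Zorbax Extend-C18 (2.1 × 50 mm, 1.8 μm) at 100 μL/min, with water and acetonitrile each containing 0.1% formic acid, in positive and negative ionization mode. Dead and dwell volumes were 40 μL and 900 μL. Retention time was taken from computationally picked adduct peaks, each manually inspected, with data collected over 3 months.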

Compound | RP-LC retention time [s]
COc1ccc(C(=O)NCCc2sc(-c3cccnc3)nc2C)cc1 | 619
CCc1nc2cc(-c3noc(-c4ccc(OC)c(F)c4)n3)ccc2o1 | 1170
Cc1ccc(Cn2cc(-c3nc(-c4ccc(Cl)cc4)no3)ccc2=O)cc1 | 1250
COc1ccc(-n2cc(C(=O)OCCc3ccccn3)c3ccccc3c2=O)cc1 | 714
O=C(Cc1ccc(F)cc1)Nc1nnc(-c2ccc(Br)cc2)s1 | 952
O=C(Nc1nccs1)C1CC(=O)N(CCc2c[nH]c3ccc(Cl)cc23)C1 (stereo not drawn) | 745
COc1ccc2[nH]cc(CCNC(=O)Cn3nc(C)c4nn(-c5ccccc5)c(C)c4c3=O)c2c1 | 817
COc1ccc2c(c1)C1(CCN(S(=O)(=O)c3cccc(C)c3)C1)C(=O)N2C (stereo not drawn) | 941
COC(=O)c1cccc(NC(=O)N2C[C@@H]3C[C@H]2C[C@@H]3NC(=O)c2ccccc2)c1 | 736
O=C(Nc1ccc(N2CCN(c3ccccc3)C2=O)nc1)c1ccc(F)c(F)c1 | 989
COc1ccccc1NC(=O)C1=C(C)NC(=O)NC1c1cccs1 (stereo not drawn) | 665
N#Cc1ccc(NC(=O)Cn2cccc(-c3nc(-c4ccc(F)cc4)no3)c2=O)cc1 | 857
CC(C)N1C(=O)C2(CCCC2)C1C(=O)NCC1CCCCC1 (stereo not drawn) | 775
O=C(CCc1c(-c2ccc(F)cc2)nc2ccccn12)Nc1cccc(F)c1 | 676
COc1cc(-c2ccccc2)nc2ccc(NC(=O)COc3ccc(F)cc3)cc12 | 776
O=C(Cc1csc2nc(-c3ccccc3)cn12)Nc1ccccc1 | 785
CC1=NS(=O)(=O)N(C)C=C1C(=O)OCc1nc(-c2ccccc2C)no1 | 1000
O=C(Cc1ccc(NC(=O)C2CCCC2)cc1)NCC(F)(F)F | 727

Compound | RP-LC retention time [s]
COCCN1C(=O)CCc2cc(NC(=O)C(C)(C)C)ccc21 | 707
CCn1ccc2sc(C)c(C(=O)NCc3ccc(Br)cc3)c2c1=O | 911
Cc1cc(Nc2nc(N[C@@H](C)c3ccc(F)cc3)c(C#N)cc2F)n[nH]1 | 877
CCOC(=O)c1cnc2c(-c3ccc(F)cc3)c(C)nn2c1N | 1020
CCOc1ccc(N2C(=O)CC(c3ccc(OC)c(OC)c3)CC2=O)cc1 | 841
COc1ccc(-c2csc(Nc3ccc(C)cc3)n2)cc1 | 1190
CCN(C(=O)Cn1c(CNC(=O)c2ccco2)nc2ccccc21)c1ccccc1 | 687
COCCN(CCOC)Cc1c(C)[nH]c2c(C)c(C)ccc2c1=O | 605
CCn1ccc2c(cc(C(=O)Nc3ccc(C)c(F)c3)n2C)c1=O | 830
CCCCNC(=O)c1cnn(-c2cc(-c3nc(C)no3)ccn2)c1C | 853
CCN(CCN(C)C)c1ccc(C(=O)O)cc1NS(=O)(=O)c1cc(F)ccc1F | 611
COc1ccc2c(c1)C1(CCN(C(=O)c3ccccc3)C1)C(=O)N2 (stereo not drawn) | 692
Cc1cc(OCC(=O)N2CCC3(O)CCCCC3C2)c2c3c(c(=O)oc2c1)CCC3 (stereo not drawn) | 803
CCOc1nccnc1N1CCC(N(C)C(=O)Cc2c(C)noc2C)C1 (stereo not drawn) | 672
CCOc1ncccc1C(=O)NCc1cc(-c2cccs2)on1 | 831
CC(C)(N)c1ncc(-c2ccc(OC(F)(F)F)cc2)[nH]1 | 693
CCCn1c(=O)c(C)nc2cc(-c3noc(-c4cccc(N(C)C)c4)n3)ccc21 | 717
Clc1cccc(-c2nc(-c3ccc(-n4ccnc4)nc3)no2)c1 | 815

Further lines, results first:

RP-LC retention time [s] | Compound
876 | Cc1cc(C)nc(N2CCN(c3ccc(F)cc3)CC2)n1
939 | CCc1noc(NC(C)=O)c1-c1ccc(OC)c(S(=O)(=O)NC2CCCCCCC2)c1
704 | CCC1CCCCN1Cc1nc(Cn2ccn3nc(-c4ccc(F)cc4)cc3c2=O)no1 (stereo not drawn)
774 | Cc1ccc(NC(=O)c2c(C)oc3nc(C)nc(N4CCCC4)c23)cc1
605 | Cn1nnnc1C1CCCN(C(=O)C2CC2)C1 (stereo not drawn)
712 | CCc1ccc(NC(=O)c2c(C)oc3c2C2=NC(CC)CN2C=N3)cc1 (stereo not drawn)
618 | Cc1cccc2nnc(N3CCN(C(=O)c4cccs4)CC3)n12
563 | Cc1nn(C)cc1C(=O)Nc1c(C)n(C)n(-c2ccccc2)c1=O
846 | COc1ccc(-c2nsc(SCC(=O)N3CCCCCC3)n2)cc1
709 | COc1ccccc1C1(CNC(=O)c2ccco2)CCOCC1
863 | CC(C)NC(=O)Nc1cccnc1N1CCOCC1
685 | O=C(c1csc(N2CCN(c3ccccc3)CC2)n1)N1CCN(c2ccccn2)CC1
681 | CCN(CC)C(=O)C1CCCN(C(=O)c2nn(C)c3c2CN(C(=O)C2CCC2)CC3)C1 (stereo not drawn)
717 | Cc1cccc(Nc2c(-c3ccc(N4CCOCC4)cc3)nc3ncccn23)c1
943 | O=C(N[C@H]1C[C@@H]2C[C@H]1N(S(=O)(=O)c1ccc3c(c1)CCC3)C2)c1cccs1
664 | COc1ccc(CN2CCc3nc(N4CCN(c5ncccn5)CC4)ncc3C2)c(OC)c1
865 | O=C(Nc1cnn(-c2ncc(N3CCCCC3)cn2)c1)c1ccccc1C(F)(F)F
889 | Cc1ccc2c(c1)N(Cc1ccc(F)cc1)N=C(C(=O)N1CCCC1)S2(=O)=O
604 | CCN1C(=O)c2cc(C(=O)N3CCC(N4CCCCC4)CC3)nn2CC1(C)C(=O)NC1CCCC1 (stereo not drawn)
776 | O=C(NCc1ccccc1)N1CCC(OCc2nc(C3CC3)no2)CC1
858 | O=C1Nc2cc(S(=O)(=O)NCCC3=CCCCC3)ccc2SC1C(=O)N1CCCC1 (stereo not drawn)
698 | CS(=O)(=O)N(Cc1ccncc1)C1CN(C(=O)c2ccc3ncccc3c2)C1
879 | O=C1CC(C(=O)N2CCc3ccccc3C2)CN1CCc1c[nH]c2ccc(Cl)cc12 (stereo not drawn)
878 | Cc1ccc(NC(=O)C2CCN(C(=O)C3Sc4ccccc4NC3=O)CC2)cc1Cl (stereo not drawn)
1090 | Cc1sc(-c2noc(C(C)C)n2)cc1S(=O)(=O)N1CCC(C(=O)Nc2cccc(C#N)c2)CC1
893 | CCCCS(=O)(=O)N1CCc2c(c(-c3nnc(-c4ccc(F)cc4)o3)nn2C)C1

RP-LC retention time [s] | Compound
581 | O=C(c1cc(-c2cccnc2)n[nH]1)N1CCN(C(=O)C2CCC2)CC1
771 | COc1ccc(N2CCN(c3nccc4ccc(C(=O)NC5CCCCC5)cc34)CC2)cc1
788 | CCc1ccc(C2=C(C)C(N3CCCN(C(=O)c4ccccn4)CC3)=NS2(=O)=O)cc1
735 | COc1ccc(-c2cc(N3CCC(NC(=O)c4ccc(Br)o4)CC3)n[nH]2)cc1
607 | Cc1ccc(N2C(=O)CC(N3CCC(C(N)=O)CC3)C2=O)cc1C (stereo not drawn)
974 | O=C(C1=NN(Cc2ccccc2)c2ccccc2S1(=O)=O)N1CCCCCC1
1120 | CCOc1nc2ccccc2nc1N1CCCC(C(=O)NC(C)c2ccccc2)C1 (stereo not drawn)
853 | CCc1csc(-c2ccc(N3CCN(C(=O)c4ccsc4)CC3)nc2)n1
623 | Cc1cc2nc(N3CCOCC3)n(CC(=O)Nc3ccc(N(C)C)cc3)c(=O)c2n1C
814 | O=C(C1=CN(c2cccc(Cl)c2)c2ccccc2S1(=O)=O)N1CCCC1
1100 | O=C(NCc1ccc(F)cc1Cl)C1CCCN(c2nccnc2Sc2ccccc2)C1 (stereo not drawn)
770 | Cc1csc(-c2cc(S(=O)(=O)N3CCOCC3)cn2CC(=O)N2CCCC2)n1
872 | Cc1ccc(NC(=O)N2CCC(N3CCN(Cc4ccccc4)C3=O)CC2)cc1F
922 | Cc1ccc(NC(=O)CN2C(=O)C3CCCCN3c3ccc(S(=O)(=O)N(C)C)cc32)cc1C (stereo not drawn)
840 | Cn1cc(-c2cc3n(n2)CCCN3C(=O)CCC(=O)N2CCN(c3ccccc3)CC2)c2ccccc21
850 | COC(=O)CCc1c(C)nc2c(c(-c3cccs3)nn2C2CCS(=O)(=O)C2)c1C (stereo not drawn)
899 | O=C(Nc1ccc(F)c(Cl)c1)N1CCC(N2CCN(Cc3ccccc3)C2=O)CC1
860 | CCOc1ccc(OCC)c(NC(=O)CSc2cc(N3CCC(C(=O)NC4CC4)CC3)ncn2)c1
657 | CCOC(=O)N1CCN(C(=O)CSc2ncnc3c2nnn3CC)CC1
657 | CCCNC(=O)C1CCCN(c2nc3ncn(CC(=O)NCc4cccs4)c(=O)c3s2)C1 (stereo not drawn)
703 | CCN1CCn2cc(S(=O)(=O)Nc3cccc(C(=O)OC)c3)cc2C1=O
836 | CCc1noc(NC(C)=O)c1-c1ccc(C)c(S(=O)(=O)Nc2ccccc2C)c1
1110 | CCCN1C(=O)c2cc(S(=O)(=O)N3CCCCC3)ccc2Oc2cccnc21
638 | O=C(c1ccc(F)c(Cl)c1)N1CCN(c2nc(CN3CCOCC3)cs2)CC1
685 | COc1ccc(CNC(=O)C2CCCN(c3nnc4ccc(Cl)cn34)C2)cc1OC (stereo not drawn)
811 | CCc1ccccc1NC(=O)N1C[C@@H](F)C[C@H]1C(=O)N1CCc2ccccc2C1
